# Data as given in US20210100909A1, “Polymeric Methylprednisolone Conjugates and Uses Thereof” (United States Government As Represented By The Department …, priority 2019, published 2021).
# Key:
# nitrotyrosine = assay: Nitrotyrosine immunostaining of spinal cord (oxidative stress); format: in vivo, rat; details: 7 days post injury
# Procedure: (§1) Injectable methylprednisolone (MP) solution (62.5 mg/ml) was obtained from Pfizer. MP was conjugated to the chain terminus of methoxy HPMA, an amphiphilic macromolecular prodrug. In parallel, IRDye® 800CW-MP-HPMA (MP-Nano-IRDye) and Alexa Fluor 488-labeled HPMA-MP (MP-Nano-Alexa 488) were also synthesized for optical imaging to visualize the bio-distribution of MP-Nano. Immediately after spinal cord transection, animals were administered an intravenous injection of freshly prepared MP-Nano (60 mg/kg, equivalent to 20% free MP dose at 30 mg/kg), MP (30 mg/kg) or vehicle (propylene glycol) by tail vein, followed by implantation of an Alzet pump (Durect Co, Cupertino, Calif., USA) which provided a 24-h infusion of MP at 5.4 mg/kg/hr (SCI-MP), or vehicle (propylene glycol) (SCI-veh and SCI-Nano-MP) into a subcutaneous pocket. These dosing of MP corresponds on an mg per kg basis to that prescribed by the Bracken protocol. Sham-transected animals underwent laminectomy and implantation of the same Alzet pumps, with vehicle (propylene glycol) infusion instead, as baseline controls.
# (§2) At 2 and 7 days after injury, animals (sham, SCI-veh, SCI-MP, SCI-Nano-MP, n=5 animals for each condition and time point) were perfused transcardially with 4% paraformaldehyde. […] Fluorescence intensity quantifications were performed in the ImageJ software (NIH).
# TNF-α [1] = assay: TNF-α immunostaining of spinal cord (inflammation); format: in vivo, rat; details: 7 days post injury
# Procedure: as §1, §2
# [2] = Body weight and food intake after acute SCI; format: in vivo, rat
# Procedure: All animals were maintained on a 12:12-h light/dark cycle with lights on at 07:00 h in a temperature-controlled (20±2° C.) vivarium. Spinal cord transection surgery was performed as previously described. In brief, 9-week-old Wistar rats (Charles River) were anesthetized by inhalation of isofluorane (3-5%) and hair was removed with a clipper. Skin over the back was cleaned with betadine and isopropyl alcohol. After making a midline incision the spinal cord at the site of transection (T4) was visualized by laminectomy, and the spinal cord was transected with microscissors. The space between transected ends of the spinal cord was filled with surgical sponge and the wound was closed in two layers with suture. Urine was manually expressed 3 times daily until automaticity develops, then as needed. Baytril was administered for the first 3 to 5 days postoperatively then as needed for sign of cloudy or bloody urine or wound infection. Sham-transected animals received a laminectomy-only surgery.
# Injectable methylprednisolone (MP) solution (62.5 mg/ml) was obtained from Pfizer. MP was conjugated to the chain terminus of methoxy HPMA, an amphiphilic macromolecular prodrug to produce a polymeric methylprednisolone conjugate. […]
# [3] = Fasting blood glucose level; format: in vivo, rat; details: 2 days post injury
# From the text: Rats were fasted overnight in clean cages with free access to water in new clean bottles. The next morning prior to sacrifice, fasted blood glucose measurement was taken by applying tail blood to a Contour Blood Glucose Monitoring System (Bayer).
# GLUT4 = GLUT4 gene expression in gastrocnemius muscle (qPCR); format: in vivo, rat; details: SCI animals
# Procedure: (§3) Total RNAs from gastrocnemius, soleus and bone were extracted using the TRI reagent (Sigma-Aldrich). For western blot analysis, gastronemius and soleus muscle tissue were lysed in RIPA buffer. Protein concentrations were determined using the BCA method. 30 μg protein lysate was used for the SDS-PAGE protein separation, and blots were probed with FOXO1 antibody.
# (§4) Real time PCR was used for the determination of mRNA levels as described previously. One μg of total RNA was used to synthesize the first strand cDNA by the High Capacity cDNA Reverse Transcription Kit (Applied Biosystems). qPCR was performed with an Applied Biosystems (ABI) Via 7 thermal cycler using ABI Taqman 2×PCR mix and ABI Assay on Demand qPCR primers. Changes in expression were calculated using the 2-ΔΔCt method using 18S RNA as the internal control.
# G6PC = G6PC gene expression in gastrocnemius muscle (qPCR); format: in vivo, rat; details: SCI animals
# Procedure: as §3, §4
# [4] = Skeletal muscle mass after acute SCI; format: in vivo, rat
# Procedure: At the end of animal study, animals were euthanized by inhalation of isofluorane prior to harvesting of tissue for study. Gastrocnemius, soleus, plantaris, EDL, bicep and tricep muscle on both sides were dissected, weighed and stored at −80° C. for further analysis. The leg was removed using sterile technique; careful dissection was performed to free the head of the femur from the pelvis. To preserve bone for micro-CT study, the left leg was removed and placed into tubes containing 4% PFA overnight, after which the PFA will be replaced with 70% ethanol for storage. The right femur and tibia (n=4-5 per group) were placed in ice-cold Minimum Essential Alpha Medium (α-MEM), and then immediately processed for extraction of total RNA from bone.
# gastrocnemius muscle = assay: Muscle histology (H&E) of gastrocnemius, fiber cross-sectional area; format: in vivo, rat
# Procedure: Pieces of gastrocnemius muscle were frozen in isopentane pre-cooled on dry ice and stored at −80° C. Transverse sections (10 μm) were then cut on Leika CM3050S cryostat and mounted directly onto cooled glass slides followed by hematoxylin & eosin (H&E) staining. Stained sections were viewed in the EVOS FL Auto system (Life Technologies). Fiber size measurement and distribution was performed using the ImageJ software (NIH).
# TNF-α [5] = assay: TNF-α mRNA in gastrocnemius and soleus muscle; format: in vivo, rat; details: 2 days post injury
# Procedure: as §3, §4
# [6] = tested on: MAFbx/atrogin-1 and MuRF1; assay: MAFbx and MuRF1 mRNA in muscle; format: in vivo, rat; details: 2 days post injury
# Procedure: as §3, §4
# FOXO1 = FOXO1 protein level in muscle (western blot); format: in vivo, rat
# Procedure: as §3
# [7] = Areal bone mineral density by DXA; format: in vivo, rat
# Procedure: (§5) Areal bone mineral density (BMD) measurements were performed by using a small animal dual-energy X-ray absorptiometer (DXA) (Lunar Piximus, Fitchburg, Wis., USA) as previously described. Volumetric BMD and bone architecture of the distal femur were assessed by a Scanco μCT scanner (μCT-40; Scanco Medical AG, Bassersdorf, Switzerland) at […] isotropic voxel size as previously described.
# [8] = Bone architecture by high-resolution μCT; format: in vivo, rat
# Procedure: as §5
# [9] = tested on: TRAP, calcitonin receptor (CTR) and Integrin β3; assay: Osteoclastic marker mRNA in bone (TRAP, CTR, Integrin β3); format: in vivo, rat; details: whole bone RNA
# Procedure: (§6) Total bone RNA was extracted as previously described with some modifications. Briefly, long bones were dissected free of soft tissues, and bone marrow were flushed away with PBS using a 27 G ½ needle-syringe. The bone samples (˜1 g) were longitudinally cut into small piece and then digested 3 times with 2 mg/ml collagenase type I (Gibco, >150 Units; 20 ml), one time with 5 mM EDTA (Sigma-Aldrich, 10 ml)), and one more with the collagenase and EDTA, each for 25 min on a Shaker with rotation at 150 rpm at 370 C. Following the digestions, the bone samples were crushed using a mortar and pestle in liquid nitrogen. RNA was extracted from the lysate using the TRizol reagent (Sigma Aldrich) according to the manufacturer's instructions.
# as §4
# RANKL = RANKL mRNA and OPG/RANKL ratio in bone; format: in vivo, rat; details: whole bone RNA
# Procedure: as §6, §4
# SOST = SOST mRNA in bone; format: in vivo, rat; details: p<0.05
# Procedure: as §6, §4
# [10] = intravenous; cited from earlier work
smiles,measurement,setting,value
"C[C@H]1C[C@@H]2[C@H]([C@@H](O)C[C@@]3(C)[C@H]2CC[C@]3(O)C(=O)CO)[C@@]2(C)C=CC(=O)C=C12 [MP, methylprednisolone]",change of SCI-induced accumulation of nitrotyrosine vs. SCI-veh,nitrotyrosine,−40.0%
same,change of SCI-induced TNF-α expression vs. SCI-veh,TNF-α [1],−32.5%
same,body weight loss,"[2]; Day 1 and Day 2 post injury, vs control animals",significantly higher weight loss
same,food intake,[2]; vs all other experiment groups,Pronounced decrease of food intake
same,fasting glucose level vs. sham,[3],+10.4%
same,change of GLUT4 expression,GLUT4,−56.5%
same,G6PC expression vs. sham,G6PC,~8 fold
same,muscle mass gastrocnemius vs. sham,[4]; NS,−12.5%
same,muscle mass biceps vs. sham,[4]; p<0.01,−14.6%
same,muscle mass EDL vs. sham,[4]; p<0.05,−10.4%
same,change of fiber cross-sectional area,gastrocnemius muscle,−40%
same,cross-sectional area and fiber size distribution,gastrocnemius muscle; in words,significant left shift of fiber size
same,mRNA level of TNF-α in gastrocnemius and soleus muscle,TNF-α [5],significantly increased
same,MAFbx and MuRF1 mRNA level in gastrocnemius muscle,[6],more significant induction
same,MAFbx mRNA level in soleus vs. SCI-veh group,[6],more significant increases
same,FOXO1 protein level in gastrocnemius and soleus muscle vs. SCI-veh,FOXO1,drastically elevated
same,decrease in BMD at the distal femur vs. sham,[7],11%
same,decrease of BMD at the proximal tibia vs. sham,[7],11.2%
same,cortical architecture of the femur midshaft,"[8]; cortical bone volume, number, thickness, separation",No significant change
same,trabecular bone architecture of the distal femur,[8]; μCT structural parameters,more significant change in each of those structural parameters than SCI-veh group
same,"osteoclastic markers TRAP, CTR and Integrin β3 mRNA vs. sham",[9],increase
same,decrease in the OPG/RANKL ratio vs. sham,RANKL,about three-fold
same,mRNA level of RANKL vs. sham,RANKL,~7 fold
same,levels of SOST mRNA vs. Sham,SOST,−22%
same,pharmacokinetic half-life,[10],2.5 to 3 h
